Experiments:
HUS [1] = details: in vivo; cited from earlier work
[2] = system: streptozotocin-induced diabetic nephropathy rats; details: cited from earlier work
[3] = system: renal function impairment induced by uninephrectomy, high sodium loading and protein loading; details: cited from earlier work
HUS [4] = details: one case of HUS; cited from earlier work
[5] = system: Thy-1-induced nephritis models; details: prophylactic administration before induction of nephritis; cited from earlier work
[6] = system: cats with chronic renal failure; assay: Blood biochemical analysis and urinalysis (BUN, serum Cre, glucose) in cats with chronic renal failure; assay type: in vivo, cat; details: Case-F, male cat 11 y, diabetic nephropathy; protamine zinc insulin 2 units/BID, 2 months
Description: Testing methods for the patients showing uremia caused by chronic renal failure, employed in Example 4 or later, will now be described. The criteria and evaluation items for the cats and dogs with chronic renal failure are as follows: Diagnosis of uremia and chronic renal failure were performed totally taking clinical findings (including findings of uremia) and the results of the blood test, blood biochemical analysis and urinalysis into consideration. As the clinical findings of uremia, existence and degree of polydipsia and diuresis, dehydration, anorexia, weight loss, vomiting symptom and state of dehydration were observed. Existence of chronic renal failure was judged based on the serum Cre value as generally employed. As reference data for grasping the degree of progress of chronic renal failure, BUN value was also monitored.
In the blood test, RBC, WBC, PCV, Hg and PLT were measured. In the blood biochemical analysis, TP, Tcho, AST, ALT, ALP, Tbil, BUN, creatinine, calcium, inorganic phosphorus, glucose, sodium ion, potassium ion and chloride ion were measured. In the urinalysis, protein amount, pH, occult blood, bilirubin and glucose were measured. To eliminate the circadian rhythm and influence by meals on the values of blood biochemical markers, every blood collection was carried out in the morning before feeding (at fasting).
As a more specific criterion for chronic renal failure in cats and dogs in the present Examples, a serum Cre value of 1.4 mg/dL in the blood test was employed. Serum Cre value was measured by creatinine deaminase-amidohydrolase method, and the BUN value as reference data for grasping the degree of progress of chronic renal failure was measured by urease-GLDH method.
Administration of beraprost sodium was conducted by orally administering the tablet with a content of 150 μg/tablet (Example 1) twice a day (300 μg/head/day). The administration was conducted every day and continued basically for 6 months, and in cases where the owner desired, the administration was continued even after the test period. The Examples of the present invention include both cases where the dosing period was less than 6 months and more than 6 months.

## CCCCC[C@H](O)/C=C/[C@@H]1[C@H]2C/C(=C/CCCC(=O)O)O[C@H]2C[C@H]1O [PGI2, prostaglandin I2]
HUS [1]
  progress of HUS: does not have an activity to inhibit the progress of HUS

## CCC#CC[C@H](C)[C@H](O)C#C[C@@H]1[C@H]2C/C(=C/COCC(=O)O)C[C@H]2C[C@H]1O [cicaprost]
[2]
  renal function impairment: activity to reduce the renal function impairment
[3]
  renal function impairment: activity to reduce the renal function impairment

## CC#CCC(C)[C@H](O)/C=C/[C@@H]1[C@H]2C/C(=C/CCCC(=O)O)C[C@H]2C[C@H]1O (stereo partly drawn) [iloprost]
HUS [4]
  improvement of the serum Cre value: effective
[5]
  urinary protein: decreased

## insulin: protamine zinc insulin for treating diabetes
[6]
  fasting blood glucose: 100 mg/dL

— patent US9783518B2, “Therapeutic agent and treatment method for ameliorating uremia” (Toray Industries, Inc., priority 2005, dated 2017)
